Test results: patent US8158142B2, “3-deazaadenosine prevents atherosclerosis and graft vasculopathy” (Kerckhoff-Klinik Gesellschaft mit beschrankter Haftung, priority 1998, dated 2012)

What was measured:
[1] = Body weight development; assay type: in vivo, mouse; details: day 65, atherogenic diet + c^3Ado 10 mg/kg/day oral, mean ± SEM, n = 9
Description: (§1) Six to eight week old female C57BL/J6 mice (Charles Rivers Wiga, Sulzfeld, Germany) with an average body weight of 20 g were randomly divided into three groups:
(§2) The average intake of food for each animal was 5.2 g per day. Food and water were replenished every 2 days, and the volumes consumed for each cage were recorded. The mice were kept in accordance with standard animal care requirements and were maintained on a 12 hour light-dark cycle with autoclaved water in a temperature-controlled environment. All animals remained healthy during the experimental period. After 9 weeks, mice were sacrificed by inhalation of trichlormethane. The heart and the ascending aorta were removed and rinsed with PBS DULBECCO'S (Life Technologies, Paisley, Scotland). The lower half of the heart was transected along a line between the tips of the atria to obtain a base for the emerging ascending aorta. This procedure allowed an exact vertical embedding of the aorta in Tissue-Tek (Miles, USA) for optimal plane cross sections. The sections were frozen in liquid nitrogen and stored at −80° C. until further study.

[2] = Total plasma cholesterol levels (CHOD-PAP method); assay type: in vivo, mouse; details: atherogenic diet + c^3Ado 10 mg/kg/day oral, mean ± SEM
Description: Blood was collected via the tail vein from all mice after overnight fasting prior to initiation of the experiment, after 35 days feeding the different diets, and at time of death. Total plasma cholesterol levels were determined using the CHOD-PAP method (Boehringer Mannheim, Germany) as described previously (32).

[3] = test system: Lewis rats which received heterotopically transplanted hearts from Fisher rats; test: Graft vasculopathy / graft atherosclerosis (intimal thickening) in transplanted hearts; assay type: in vivo, rat; details: after 120 days
Description: (§3) 3-Deazaadenosine was orally administered by mixing into the regular food at a final concentration of 0.04 mg/g, according to a daily oral dose of 10 mg/kg c3Ado per animal, in addition to or in absence of cyclosporine (0.2 mg/kg body weight) to Lewis rats which received heterotopically transplanted hearts from Fisher rats. For a third control group, only cyclosporine was administered daily to the other allograft recipients. All animals got a standard diet over the whole study period. Allografts were harvested on day 120, cardiac graft beat was assessed by daily palpation, and the complete cessation of the graft beat was interpreted as rejection. All of the rats accepted cardiac allografts without any further treatment for the duration of observation.
Every complete cross-section of the traceable arteries was calculated. The sections were reviewed by two independent reviewers masked to the status of the slides, and histologic changes were assessed semiquantitatively. The changes of intimal thickening were scored as mild (score 1, <25% occlusion of the lumen) when the intima was readily discernible, or as moderate (score 2, 25-50% occlusion) to severe (score 3, >50% occlusion).

[4] = test system: Lewis rats which received heterotopically transplanted hearts from Fisher rats; test: Heterotopic heart allograft survival and rejection (Fisher to Lewis rats); assay type: in vivo, rat
Description: as §3, with “rejection.” for “rejection. All of the rats accepted cardiac allografts without any further treatment for the duration of observation.”

[5] = target: adenosylhomocysteine hydrolase (Homo sapiens, UniProt P23526); details: cited from earlier work
Chain of adenosylhomocysteine hydrolase (P23526 whole entry): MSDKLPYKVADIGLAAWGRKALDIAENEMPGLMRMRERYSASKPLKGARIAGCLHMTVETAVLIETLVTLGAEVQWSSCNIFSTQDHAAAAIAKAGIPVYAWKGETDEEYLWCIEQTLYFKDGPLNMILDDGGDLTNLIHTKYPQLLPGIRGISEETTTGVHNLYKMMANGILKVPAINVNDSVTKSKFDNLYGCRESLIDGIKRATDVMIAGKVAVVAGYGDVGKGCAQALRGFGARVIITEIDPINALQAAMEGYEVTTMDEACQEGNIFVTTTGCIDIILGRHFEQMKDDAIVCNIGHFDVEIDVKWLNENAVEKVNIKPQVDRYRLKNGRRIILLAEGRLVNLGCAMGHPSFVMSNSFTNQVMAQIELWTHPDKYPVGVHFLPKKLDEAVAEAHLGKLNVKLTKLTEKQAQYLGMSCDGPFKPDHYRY

[6] = test system: CD11b-positive monocytes; test: Counting of CD11b-positive monocytes in aortic sections; assay type: in vivo, mouse
Description: (§4) Serial cryostate sections (8 μm) from the following 3 parts of the ascending aorta were chosen: 8-32 μm, 120-144 μm and 240-264 μm distal to the aortic sinus. The frozen sections were fixed in ice-cold acetone and dried for 10 minutes. Sections were then incubated for 10 minutes in a 1:1000 dilution of mouse serum (Sigma, St. Louis, Mo., USA). After rinsing with RPMI 1640 (Life Technologies, Paisley, Scotland), the sections were incubated for 40 minutes at room temperature with a 1:100 dilution of a monoclonal rat anti-mouse antibody against ICAM-1 (CF54) or VCAM-1 (CD106, Dianova GmbH, Hamburg, Germany). Detection of monocytes/macropheges was performed using monoclonal rat anti-mouse antibody CD11 b (MAC-1) (Serotec Ltd., Oxford, England).
(§5) After additional washing steps with TRIS buffer (USB, Cleveland, Ohio, USA) and incubation with a secondary antibody (AffiniPureMouse anti-ret IgG, Dianova, Germany) (1:400) for 10 minutes, followed by incubation with a linking antibody (Dualsystem-Brückenantikörper; Dianova, Hamburg, Germany) (1:600) for 10 minutes, the sections were incubated with an alkaline phosphatase anti-alkaline phosphatese complex (APAPP) (1:50; Dianova, Hamburg, Germany) for 30 minutes. The development of the sections was performed in neufuchsin developer solution. Sections were finally counterstained with hemalaun (Merck, Darmstadt, Germany) for 10 seconds. Control sections were treated with linking secondary antibody and APAAP complex only.
(§6) The intensity of staining with ICAM-1 and VCAM-1 was scored from 1 to 4 as follows: score 1=no staining, score 2=weak staining, score 3=moderate staining and score 4=strong staining of the vascular cells. The number of CD11b-positive cells was counted in each section, and the localization of the cells was classified as adherent to the wall, or localized in the intima or in the media.

[7] = test system: ICAM-1; test: Immunohistochemical staining of ICAM-1 in ascending aorta (APAAP method); assay type: in vivo, mouse; details: for Endothelial expression of ICAM-1 in the aorta (words): mice on atherogenic diet treated with c^3Ado, FIG. 4
Description: as §4, §5, §6

[8] = test system: monocyte; details: cited from earlier work
[9] = test system: VCAM-1; test: Immunohistochemical staining of VCAM-1 in ascending aorta (APAAP method); assay type: in vivo, mouse; details: for Endothelial expression of VCAM-1 in the aorta (words): mice on atherogenic diet treated with c^3Ado, FIG. 4
Description: as §4, §5, §6

[10] = test system: VCAM-1; test: Immunohistochemical analysis of VCAM-1 in transplanted hearts; assay type: in vivo, rat; details: heart allograft, day 120
Description: as §3
(§7) For immunohistochemical analysis of VCAM-1 and ICAM-1. two complete transverse sections of the transplanted heart approximately 3 mm in thickness were obtained and stored in optimum cutting temperature compound. Serial sections were cut and dipped in cold acetone for 10 minutes. The staining procedures were performed as described previously. The expression of the adhesion molecules was scored on the basis of endothelial cells and smooth muscle cells of epicardial arteries and intramyocardial aterioles. Analysis was done semiquantitatively by scoring the intensity of the staining and counting of the number of stained cells.

[11] = test system: ICAM-1; test: Immunohistochemical analysis of ICAM-1 in transplanted hearts; assay type: in vivo, rat; details: heart allograft, day 120
Description: as §3, §7

[12] = test system: female C57BL/J6 mice; test: Quantification of atherosclerotic lesions and neointimal proliferation in the ascending aorta of mice on atherogenic diet; assay type: in vivo, mouse; details: for NI/M Ratio (neointimal to medial area ratio): mean ± SEM, 3 sections per animal
From the text: as §1
Group 1: control animals (n=9) maintained on a normal mouse diet (Altromin, Standard Diet; Lage, Germany).
Group 2: nine animals receiving an atherogenic diet based on normal mouse chow but differing in total fat content (10% vs. 5%), protein content (15.4% vs. 22%) and cholesterol content (1% vs. 0%). The total energy was 3790 vs. 3000 kcal/kg.
Group 3: nine animals on an atherogenic diet as described above, and 3-deazaadenosine (c^3Ado) (Southern Research, Birmingham, Ala., USA) mixed into the food at a final concentration of 0.04 mg/g, according to a daily oral dose of 10 mg/kg c^3Ado per animal.
as §2
A modification of the method described by Paigen at el. (29) was used to evaluate aortic lesion formation. The frozen tissue blocks were placed on a cryotome, and 8 μm serial sections of the ascending aorta were collected on coated glass slides until we were able to locate the most cranial portion of the aortic sinus by examining unstained sections. Once this section (No.1) was identified, the cranial 35 sections, covering 280 μm of the ascending aorta, were placed on separate slides for further evaluation. Every fifth section of the first 280 μm of the ascending aorta was stained with oil red O (Riedel de Haen, Germany) and counterstained with hemalaun (Merck, Darmstadt, Germany) end elastic van Gieson (Chrome-Gesellsohaft, Schmid GmbH, Köngen, Germany). Lesion area as well as intimal and medial area were blindly determined using a video-computer aided microscopy planimetry system (Zeiss, Oberkochen, Germany; Video Camera 3 CCD,
Sony; 40× lens magnification; IBAS-2 with IBAS Version 2.0 Standard, Kontron, München, Germany).
The number of lesions was counted as described previously by reviewing every fifth section. […] The number of lesions in each cross section was also counted. Size of the lesions was determined as length of lesion along the luminal aortic perimeter which was related to the total luminal aortic perimeter in the section.
The extent of neointimal proliferation was quantified by measuring the area (μm^2) of the neointima and the media in each ascending aorta from 3 sections (No.10, 20 and 30). In each section four sectors (at 0°, 90°; 180° and 270°) of the vessel wall were analyzed in a defined window of 63 μm×63 μm to measure neointimal area enclosed by the endothelial layer and internal elastic lamina and external elastic lamina. Ratio of neointimal to medial are ratio (NI/M) was averaged for each animal.

[13] = test system: endothelial cells; details: in vitro, via selective inhibition of ICAM-1 synthesis; cited from earlier work
[14] = group 3, atherogenic diet + c^3Ado
[15] = score 1 = no staining to 4 = strong staining, endothelial, ascending aorta, 9 weeks, mean ± SEM
[16] = mean ± SEM out of 3 sections per animal, 9 weeks atherogenic diet + c^3Ado

Nc1nccc2c1ncn2[C@@H]1O[C@H](CO)[C@@H](O)[C@H]1O [c^3Ado, 3-deazaadenosine]
Body weight day 65 [1]: 25.3 ± 0.2 g | Total cholesterol day 35 ([2]; day 35, plasma): 410 ± 19 mg/dL | Total cholesterol day 65 ([2]; day 65, plasma): 475 ± 10 mg/dL | Intimal thickening of intramyocardial and epicardial arteries [3]: almost no arterial intimal thickening | Complications as a result of therapy ([4]; 10 mg/kg/day oral, 120 days): No complications | Graft survival (graft beat) ([4]; daily palpation, observation 120 days): kept beating for the duration of observation | Graft rejection ([4]; heart allograft, 120 days): completely free from rejection | Effect on adenosylhomocysteine hydrolase [5]: suppresses | Adherent CD11b-positive cells on the luminal surface [6, 14]: only a few adherent CD11b-positive cells | CD11b-positive monocytic cells within the intima [6, 14]: no monocytic cells within the intima | Amount of intimal monocytes (first column of this head) ([6]; mean ± SEM per section, 3 defined sections per animal, first of two columns with the same head (title: endothelial monocytes)): 0.5 ± 0.2 | Amount of intimal monocytes (second column of this head) ([6]; mean ± SEM per section, 3 defined sections per animal, second of two columns with the same head): 0 ± 0 | Endothelial expression of ICAM-1 in the aorta (words) [7]: completely absent | Endothelial expression of ICAM-1 in the aorta (words) ([7]; listed as 3-deazaadenosine): no endothelial expression | ICAM-1 expression score [7, 15]: 1.0 ± 0 | Monocyte chemotaxis and phagocytosis [8]: inhibit | Endothelial expression of VCAM-1 in the aorta (words) [9]: completely absent | Endothelial expression of VCAM-1 in the aorta (words) ([9]; listed as 3-deazaadenosine): no endothelial expression | VCAM-1 expression score [9, 15]: 1.0 ± 0 | VCAM-1 expression in the neointima of transplanted hearts [10]: almost no expression | ICAM-1 expression in the neointima of transplanted hearts [11]: almost no expression | Number of lesions ([12]; fatty streak lesions, mean ± SEM from 7 sections per animal): 0 ± 0 | Neointima in aortic cross sections ([12]; light micrographs, 200 μm cranial to aortic valve, FIG. 3): absent | Medial Area [12, 16]: 62.7 ± 2.5 × × 10^3 μm^2 | Neointimal area [12, 16]: 0.13 ± 0.03 × × 10^3 μm^2 | NI/M Ratio (neointimal to medial area ratio) ([12]; 9 weeks atherogenic diet + c^3Ado): 0.002 ± 0.0004 | NI/M Ratio (neointimal to medial area ratio) ([12]; 9 weeks atherogenic diet + c^3Ado, listed as c^aAdo): 0.002±0.0004 | Fatty streak lesions in sections of the ascending aorta ([12]; oil red O staining, 7 frozen sections per animal): no detectable lesions | Neointimal area ([12]; proximal ascending aorta, planimetric analysis, atherogenic diet + c^3Ado, p<0.001): 125±32 μm^2 | Neointimal thickness as NI/M, lower than in mice on atherogenic diet without c^3Ado ([12]; vs atherogenic diet alone, p<0.001): 94% | Tumor necrosis factor-a-induced macrophage adhesion to endothelial cells [13]: reduces
